What was measured:
PPARγ = molecular target: T1, PPARγ (Homo sapiens, UniProt P37231); settings: cited from earlier work
T1 sequence (P37231 1-505): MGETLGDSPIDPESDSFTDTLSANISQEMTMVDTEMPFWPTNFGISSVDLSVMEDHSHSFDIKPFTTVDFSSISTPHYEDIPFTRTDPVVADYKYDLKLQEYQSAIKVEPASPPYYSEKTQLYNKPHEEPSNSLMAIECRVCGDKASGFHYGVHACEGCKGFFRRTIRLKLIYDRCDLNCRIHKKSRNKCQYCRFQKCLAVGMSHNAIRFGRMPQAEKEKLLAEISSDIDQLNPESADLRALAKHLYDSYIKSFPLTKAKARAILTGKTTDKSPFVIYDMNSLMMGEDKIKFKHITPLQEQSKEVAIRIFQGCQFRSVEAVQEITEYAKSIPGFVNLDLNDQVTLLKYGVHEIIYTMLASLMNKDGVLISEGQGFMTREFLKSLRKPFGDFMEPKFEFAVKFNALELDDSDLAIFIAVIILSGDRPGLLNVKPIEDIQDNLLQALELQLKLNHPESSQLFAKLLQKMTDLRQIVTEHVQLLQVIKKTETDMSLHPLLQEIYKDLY

rat cerebellum = settings: injection; bacterial lipopolysaccharide and interferon-γ; cited from earlier work
[1] = system: rats subjected to middle cerebral artery occlusion (MCAO); settings: 90 minute MCAO
Excerpt: Male Wistar rats, 250-350 g, were obtained from Charles River (Wilmington, Mass.). Animals were housed and cared for in the Animal Resource Center and allowed free access to food and water before and after surgery. All procedures were approved by the Institutional Animal Care and Use Committee of Case Western Reserve University.
A 4.0 nylon suture with a flame rounded tip was advanced through the internal carotid artery to occlude the MCA while cerebral blood flow was monitored using laser doppler (Perimed AB, Jarfalla, Sweden). At the time of reperfusion rats were again anesthetized and the suture removed with cerebral blood flow monitoring to ensure reperfusion. Arterial blood pressure, arterial blood gases and temperature were all monitored and controlled during the length of the procedure.
Control animals were injected with 0.1 ml DMSO.
Rats were euthanized by exposure to 5% halothane until breathing ceased. They then underwent intracardiac perfusion first with PBS and then with 4% paraformaldehyde. Brains were isolated and immersion fixed in 4% paraformaldehyde overnight. Tissue was cryoprotected in 30% sucrose in PBS. Twenty micron frozen sections were collected every […] beginning at the level of the forceps minor corpus callosum and extending through the hippocampus. Sections were stained with Thionin and the area of infarction measured using Bioquant computer software (R&M Biometrics, Nashville, Tenn.) by subtracting the uninfarcted tissue in the ischemic hemisphere from the volume of the contralateral hemisphere. This method corrects for post-ischemic edema.
Male Wistar rats, 250-350 g, were obtained from Charles River (Wilmington, Mass.). […] Animals were housed and cared for in the Animal Resource Center and allowed free access to food and water before and after surgery. […] The tail artery was exposed and cannulated to measure mean arterial blood pressure and to obtain blood for blood gas measurements during surgery. Animals in which normal temperature, blood pressure and gases could not be maintained were excluded from the study. MCAO was performed as previously described. Briefly, the bifurcation of the common carotid artery was exposed. The external carotid artery was isolated and a suture placed 0.5 cm from the bifurcation. Following electrocoagulation distal to the suture the external carotid was cut between the suture and the electrocoagulated segment. A suture was applied to the common carotid artery such that it could be removed later. A loop of suture was then placed under the internal carotid artery and the artery elevated to transiently occlude blood flow. A small nick was made in the wall of the external carotid artery. Through this nick a 22 mm length of 4.0 Ethicon suture, its tip rounded by heating near a flame, was gently threaded from the external to the internal carotid artery lumen to a distance of 18 mm from the bifurcation of the carotid. The thread was held in place with a suture around the stump of the external carotid artery and the suture around the internal carotid artery released. The catheter was removed from the tail artery and both incisions were closed. The rats were then allowed to recover from anesthesia. […] The neck incision was reopened and the 4.0 Ethicon suture removed. The suture that held it in place was tightened and the suture around the common carotid artery was removed. After confirmation of reperfusion by visual inspection, the incision was closed and the animal allowed to recover.
Twenty micron frozen sections of paraformaldehyde fixed brains were collected every 1000 μm beginning at the level of the forceps minor corpus callosum and extending through the hippocampus. The slides were stained with Thionin. The sections were then trans-illuminated and the image transmitted to a computer screen.

hemorrhagic stroke = settings: in vivo; cited from earlier work
[2] = system: rodent models of cerebral ischemia; settings: in vivo; cited from earlier work
[3] = system: cultured cerebellar granule neurons; settings: cited from earlier work
ICAM mRNA = ICAM mRNA by real time PCR after MCAO; assay type: in vivo, rat; settings: rosiglitazone 0.1 mg/kg or pioglitazone 1 mg/kg 24 h before and at time of 2 hour MCAO; sacrificed 24 h later
PPARγ-PPRE binding = molecular target: T2, PPARγ-PPRE binding (Rattus norvegicus, UniProt O88275); assay: Electrophoretic mobility shift assay of PPARγ DNA (PPRE) binding in brain nuclear extract; assay type: in vivo; settings: both ipsilateral and contralateral hemispheres, 0.1 mg/kg 24 h before and at time of 2 hour MCAO
T2 construct: from tissue; host or cells: rat brain nuclear extract (ipsilateral and contralateral hemisphere after MCAO)
T2 sequence (O88275 1-505): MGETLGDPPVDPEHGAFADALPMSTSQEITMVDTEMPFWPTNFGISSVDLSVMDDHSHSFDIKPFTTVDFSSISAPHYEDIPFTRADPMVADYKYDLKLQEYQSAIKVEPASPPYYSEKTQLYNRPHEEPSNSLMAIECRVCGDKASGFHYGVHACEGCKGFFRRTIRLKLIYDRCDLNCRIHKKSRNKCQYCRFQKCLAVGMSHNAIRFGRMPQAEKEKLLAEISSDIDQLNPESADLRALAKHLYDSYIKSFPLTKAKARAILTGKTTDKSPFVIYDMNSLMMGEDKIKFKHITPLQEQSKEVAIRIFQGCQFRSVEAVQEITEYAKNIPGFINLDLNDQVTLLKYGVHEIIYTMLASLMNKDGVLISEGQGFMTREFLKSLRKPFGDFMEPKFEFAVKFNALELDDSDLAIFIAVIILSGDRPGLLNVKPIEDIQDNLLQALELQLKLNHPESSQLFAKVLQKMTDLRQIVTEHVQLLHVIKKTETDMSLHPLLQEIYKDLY
T2 sequence (Q05343 1-467 partner): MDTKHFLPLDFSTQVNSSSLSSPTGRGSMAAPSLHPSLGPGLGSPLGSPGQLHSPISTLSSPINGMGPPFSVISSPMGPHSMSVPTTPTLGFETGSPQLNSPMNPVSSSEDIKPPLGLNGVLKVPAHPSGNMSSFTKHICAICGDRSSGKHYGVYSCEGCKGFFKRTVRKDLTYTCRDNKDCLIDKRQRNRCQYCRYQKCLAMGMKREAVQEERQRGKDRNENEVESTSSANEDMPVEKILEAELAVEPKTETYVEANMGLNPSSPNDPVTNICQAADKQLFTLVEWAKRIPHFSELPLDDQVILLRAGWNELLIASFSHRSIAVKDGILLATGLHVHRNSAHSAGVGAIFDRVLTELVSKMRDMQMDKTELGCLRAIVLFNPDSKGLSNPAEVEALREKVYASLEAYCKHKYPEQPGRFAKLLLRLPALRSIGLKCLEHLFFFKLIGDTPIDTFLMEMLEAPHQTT
Procedure: Eight hours after the onset of MCAO the animals were euthanized by halothane inhalation and the brains quickly removed. Blocks of tissue 4 mm thick encompassing the rostral caudal extension of the infarct and the same area on the contralateral hemisphere were dissected free and snap frozen in liquid nitrogen. Nuclear extraction was performed and protein concentrations were determined using the Bradford method.
Ten micrograms of nuclear extract protein was incubated with 32P-labeled double stranded oligonucleotide (40 fmol) containing the PPAR responsive element sequences in rat acyl CoA oxidase promoter (5′-[…]-3′) (SEQ ID NO: 5). For competition assays, 100 fold radioinert (cold) competitor oligonucleotides were included in the reaction mixture. Interference assays with antibody to PPARγ (2 μg/reaction; SC-7273x, Santa Cruz Biotechnology,) were used to determine specificity of PPARγ-PPRE binding.
Nucleoprotein-oligonucleotide complexes were resolved electrophoretically on a 7% non-denaturing polyacrylamide gel. The gel was autoradiographed and optical density was assessed using Kodak Analysis (EDAS) 290 system.

LPL mRNA = assay: Lipoprotein lipase (LPL) mRNA by real time PCR after MCAO; assay type: in vivo, rat; settings: rosiglitazone 0.1 mg/kg, pioglitazone 1.0 mg/kg; 24 h before and at time of 2 hour MCAO; tissue 24 h later
Excerpt: At the time of sacrifice the animal was placed in an anesthesia chamber and exposed to 5% halothane, 30% oxygen, 65% nitrous oxide until it ceased breathing. The rat was the, processed for either histologic and immunocytochemical analysis or decapitated and the brain immediately dissected for mRNA isolation. Animals used for immunohistochemistry underwent intracardiac perfusion; the thoracic cavity was opened, a blunt needle placed through the left ventricle into the aorta and the right atrium cut. Animals were perfused through the heart, first with 0.1 M phosphate buffer and then with 4% paraformaldehyde (pH 7.4). The brain was removed from the rat and immersion fixed in 4% paraformaldehyde for an additional hour. Tissue was then transferred to 30% sucrose in phosphate buffer in order to cyroprotect it. Brains were mounted in OCT sectioning medium and frozen sections cut at either twenty microns (for infarct volume determination) or ten microns (for immunocytochemistry). Animals used in real time PCR experiments were decapitated after euthanasia and the brain quickly removed.
A 2 mm thick coronal slice of tissue through the area of maximal infarction was quickly homogenized in Trizol (Gibco BRL, Rockville, Md.). […] RNA was isolated using Life Technologies Protocol (Rockville, Md.), and cDNA synthesized from 1.5 μg of total RNA. […]

[4] = Physiologic parameters and cerebral blood perfusion monitoring during MCAO; assay type: in vivo, rat; settings: during MCAO surgery
Procedure: MCAO was performed as previously described. […] The rats were then allowed to recover from anesthesia.
Male Wistar rats were anesthetized with halothane. Cerebral blood perfusion was monitored during surgery and reperfusion including the time of occlusion and the time of reperfusion. A small craniotomy was made midway between the corner of the eye and the external auditory canal. A laser Doppler probe (Perimed AB, Järfälla, Sweden) was placed such that its beam passed through the craniotomy and cerebral blood perfusion measured. Once the baseline measurement was obtained, MCAO was performed. Cerebral blood perfusion was monitored at the time of MCAO and at the time of reperfusion. There were no significant differences in cerebral blood flow reductions during MCAO for any of the treatment groups. Following completion of MCAO, animals were allowed to recover and returned to their cages.

For `CCCCC/C=C/C=C1/C(=O)C=C[C@@H]1C/C=C\CCCC(=O)O` [15-deoxy-D12,14-prostaglandin J2], the “concentrations at which it binds PPARγ” value (PPARγ) is given as 2 to 5 µM and the “cell death in rat cerebellum” value (rat cerebellum) is given as “reduces cell death”.

With `O=C(Nc1ccncc1)c1cc([N+](=O)[O-])ccc1Cl` [T0070907] the mean absolute infarction volume ([1]; T0070907 24 h before and at time of MCAO) was 176 mm³ and the animals that died ([1]; panel B) was “one animal”.

For `CCCCCCCCCCCCCCCCOC[C@H](COP(=O)([O-])OCC[N+](C)(C)C)OC(=O)CCCCCCCC(=O)O` [hexadecyl azelaoyl phosphatidyicholine], the Kd (PPARγ) is given as ~40 nM.

In the case of Nitrolinoleic acid, the Ki (PPARγ) is listed as > 1000 nM.

For `CC(C)Cc1ccc(C(C)C(=O)O)cc1` (centres unmarked) [ibuprofen], the “cell death in rat cerebellum” value (rat cerebellum) is listed as “reduces cell death”.

For `CCCCC[C@H](O)/C=C/[C@H]1C(=O)C=C[C@@H]1C/C=C\CCCC(=O)O` [prostaglandin J2], the “benefit in hemorrhagic stroke” value (hemorrhagic stroke) is listed as “beneficial in hemorrhagic stroke”.

For `Cc1c(C)c2c(c(C)c1O)CCC(C)(COc1ccc(CC3SC(=O)NC3=O)cc1)O2` (single isomer, unassigned; (+)) [troglitazone, (+)-5[[4-[(3,4-dihydro-6-hydroxy-2,5,7,8-tetramethyl-2H-1-benzopyran-2-yl)methoxy]phenyl]methyl]-2,4thiazolidinedione], the “neuroprotection in rodent models of cerebral ischemia” value [2] is listed as “effective neuroprotective agents”, the “cell death following glutamate exposure” value [3] is listed as “reduces cell death” and the low-potassium-induced apoptosis [3] is listed as “suppresses low-potassium-induced apoptosis”. The “cell death in rat cerebellum” value (rat cerebellum) was “reduces cell death”.

For `CN(CCOc1ccc(CC2SC(=O)NC2=O)cc1)c1ccccn1` (centres unmarked) [rosiglitazone, 5-[4-[2-(N-methyl-N-(2-pyridyl)amino]ethoxy]benzyl]thiazolidine-2,4-dione], the “ICAM mRNA compared with vehicle treated rats” value (ICAM mRNA) was “significant reduction in ICAM mRNA”, the “PPARγ-PPRE binding (densitometry), in words” value (PPARγ-PPRE binding) was “significantly increase PPARγ-PPRE binding” and the “PPARγ-PPRE binding (densitometry), in words” value (PPARγ-PPRE binding; listed as Rosiglitazone) was “increased DNA binding in both the ischemic and the non-ischemic hemispheres”. The “increase in LPL mRNA levels within the ischemic hemisphere” value (LPL mRNA) was 254% and the “physiologic parameters (temperature, arterial blood gases, blood pressure, cerebral blood flow) versus vehicle” value [4] was “no differences in physiologic parameters”.

— patent US20100331330A1, “METHODS AND COMPOSITIONS FOR TREATING ISCHEMIC STROKE” (priority 2006, published 2010)
